{
  "source": "paper PMC2919811",
  "about": "(Analytical biochemistry, 2010)",
  "key": {"OATP2B1 [1]": {"biological_target": "T1, OATP2B1 (Homo sapiens, UniProt O94956)", "T1 sequence (O94956 1-709)": "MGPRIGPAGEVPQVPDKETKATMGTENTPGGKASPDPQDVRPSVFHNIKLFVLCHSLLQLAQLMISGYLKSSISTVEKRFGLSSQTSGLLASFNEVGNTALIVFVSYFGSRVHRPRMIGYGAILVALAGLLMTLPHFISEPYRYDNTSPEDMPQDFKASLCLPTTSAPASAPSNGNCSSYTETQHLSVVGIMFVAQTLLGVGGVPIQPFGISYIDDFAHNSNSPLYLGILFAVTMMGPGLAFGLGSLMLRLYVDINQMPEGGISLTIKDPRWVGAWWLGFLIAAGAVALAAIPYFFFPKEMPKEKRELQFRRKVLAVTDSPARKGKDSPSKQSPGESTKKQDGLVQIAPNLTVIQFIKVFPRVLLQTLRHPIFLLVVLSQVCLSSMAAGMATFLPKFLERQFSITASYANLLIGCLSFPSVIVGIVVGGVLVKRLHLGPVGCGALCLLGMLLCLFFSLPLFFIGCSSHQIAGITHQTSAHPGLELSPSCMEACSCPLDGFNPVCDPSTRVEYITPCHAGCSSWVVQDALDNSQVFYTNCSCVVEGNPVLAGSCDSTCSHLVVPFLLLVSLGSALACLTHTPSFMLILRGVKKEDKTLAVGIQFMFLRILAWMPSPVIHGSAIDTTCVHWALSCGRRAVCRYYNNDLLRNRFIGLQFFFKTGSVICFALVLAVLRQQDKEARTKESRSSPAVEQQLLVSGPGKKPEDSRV", "experiment": "Substrate uptake in CHO cells stably expressing OATP2B1", "format": "cell-based", "conditions": "2 μM substrate, five minute accumulation, CHOvector = 1"}, "OCT2": {"biological_target": "T2, OCT2 (Homo sapiens, UniProt O15244)", "T2 sequence (O15244 1-555)": "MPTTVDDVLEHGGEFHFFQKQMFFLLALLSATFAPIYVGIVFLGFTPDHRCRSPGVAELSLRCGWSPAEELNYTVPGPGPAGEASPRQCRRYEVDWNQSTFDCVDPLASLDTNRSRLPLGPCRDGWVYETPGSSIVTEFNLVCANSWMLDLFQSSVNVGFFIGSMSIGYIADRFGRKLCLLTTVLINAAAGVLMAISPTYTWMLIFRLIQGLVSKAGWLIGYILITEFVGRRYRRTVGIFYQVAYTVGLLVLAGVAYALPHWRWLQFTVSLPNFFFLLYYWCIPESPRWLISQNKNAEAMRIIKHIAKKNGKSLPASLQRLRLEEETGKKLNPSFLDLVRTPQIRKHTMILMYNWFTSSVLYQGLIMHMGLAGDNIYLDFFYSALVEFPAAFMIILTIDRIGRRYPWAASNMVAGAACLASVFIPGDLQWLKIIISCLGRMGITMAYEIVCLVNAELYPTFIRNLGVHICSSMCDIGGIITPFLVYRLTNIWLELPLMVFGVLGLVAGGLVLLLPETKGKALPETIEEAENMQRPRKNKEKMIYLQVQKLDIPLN", "experiment": "Cellular accumulation in CHO cells transiently transfected with OCT2", "format": "cell-based", "conditions": "10 μM 8-FcA, 20 minutes"}, "OAT1": {"biological_target": "T3, OAT1 (Homo sapiens, UniProt Q4U2R8)", "T3 sequence (Q4U2R8 1-563)": "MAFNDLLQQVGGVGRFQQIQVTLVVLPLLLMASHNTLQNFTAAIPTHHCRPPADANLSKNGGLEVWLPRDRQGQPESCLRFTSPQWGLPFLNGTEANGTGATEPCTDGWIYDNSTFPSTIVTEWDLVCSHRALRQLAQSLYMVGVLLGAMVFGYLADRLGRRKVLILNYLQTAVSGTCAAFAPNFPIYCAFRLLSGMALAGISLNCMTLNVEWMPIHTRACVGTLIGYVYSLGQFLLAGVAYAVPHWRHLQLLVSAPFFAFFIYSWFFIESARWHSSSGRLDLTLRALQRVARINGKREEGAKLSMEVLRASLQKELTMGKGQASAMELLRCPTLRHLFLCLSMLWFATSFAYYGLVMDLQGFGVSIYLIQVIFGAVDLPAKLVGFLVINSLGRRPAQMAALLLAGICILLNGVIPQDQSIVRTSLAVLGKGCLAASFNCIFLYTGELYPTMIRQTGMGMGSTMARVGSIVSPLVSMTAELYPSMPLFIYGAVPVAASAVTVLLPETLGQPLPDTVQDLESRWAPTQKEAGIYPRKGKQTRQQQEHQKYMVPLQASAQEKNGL", "experiment": "Cellular accumulation in CHO cells transiently transfected with OAT1", "format": "cell-based", "conditions": "10 μM 8-FcA, 20 minutes"}, "NTCP": {"biological_target": "T4, NTCP (Homo sapiens, UniProt Q14973)", "T4 sequence (Q14973 1-349)": "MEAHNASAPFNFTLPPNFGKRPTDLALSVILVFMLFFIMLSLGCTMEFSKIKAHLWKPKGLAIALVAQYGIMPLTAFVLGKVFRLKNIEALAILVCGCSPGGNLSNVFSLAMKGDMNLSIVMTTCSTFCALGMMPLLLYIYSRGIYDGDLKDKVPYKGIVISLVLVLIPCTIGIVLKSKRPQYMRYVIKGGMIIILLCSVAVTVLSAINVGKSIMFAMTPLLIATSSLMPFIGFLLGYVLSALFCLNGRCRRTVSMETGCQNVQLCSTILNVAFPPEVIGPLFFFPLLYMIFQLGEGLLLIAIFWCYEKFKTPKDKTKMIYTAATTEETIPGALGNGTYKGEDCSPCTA", "experiment": "Cellular accumulation in CHO cells transiently transfected with NTCP", "format": "cell-based", "conditions": "10 μM 8-FcA, 20 minutes"}, "OATP2B1 [2]": {"biological_target": "T1, OATP2B1", "experiment": "Cellular accumulation in CHO cells transiently transfected with OATP2B1", "format": "cell-based", "conditions": "10 μM 8-FcA, 20 minutes"}, "OATP1B1": {"biological_target": "OATP1B1 (Homo sapiens, UniProt Q9Y6L6)", "sequence (Q9Y6L6 whole entry)": "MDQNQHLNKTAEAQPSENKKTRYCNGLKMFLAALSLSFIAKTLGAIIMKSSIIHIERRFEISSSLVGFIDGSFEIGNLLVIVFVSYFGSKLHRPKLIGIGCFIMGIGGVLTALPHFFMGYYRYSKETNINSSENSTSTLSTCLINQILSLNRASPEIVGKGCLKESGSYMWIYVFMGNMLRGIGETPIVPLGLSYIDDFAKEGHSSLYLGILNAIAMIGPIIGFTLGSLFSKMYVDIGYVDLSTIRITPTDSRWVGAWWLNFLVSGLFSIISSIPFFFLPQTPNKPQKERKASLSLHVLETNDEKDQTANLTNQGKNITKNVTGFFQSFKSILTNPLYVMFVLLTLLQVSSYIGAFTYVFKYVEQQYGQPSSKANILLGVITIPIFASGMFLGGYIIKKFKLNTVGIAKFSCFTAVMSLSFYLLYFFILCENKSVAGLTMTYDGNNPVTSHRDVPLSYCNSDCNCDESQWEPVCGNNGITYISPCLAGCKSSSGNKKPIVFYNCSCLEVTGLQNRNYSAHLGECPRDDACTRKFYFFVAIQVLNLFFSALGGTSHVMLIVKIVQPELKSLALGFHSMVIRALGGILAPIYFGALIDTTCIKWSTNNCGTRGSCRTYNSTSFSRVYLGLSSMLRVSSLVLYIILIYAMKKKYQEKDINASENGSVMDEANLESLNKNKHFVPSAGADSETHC", "conditions": "10 μM 8-FcA, 20 minutes"}, "[3]": {"conditions": "stated in the introduction without data or own reference; cited from earlier work"}},
  "data": [
    {"smiles": "Nc1ncnc2c1nc(SCCNC(=S)Nc1ccc(-c3c4ccc(=O)cc-4oc4cc(O)ccc34)c(C(=O)O)c1)n2[C@@H]1O[C@@H]2COP(=O)(O)O[C@H]2[C@H]1O", "note": "[8-FcA, 8-(2-[Fluoresceinyl]aminoethylthio) adenosine-3', 5'-cyclic monophosphate]", "values": [
      {"measurement": "cellular accumulation relative to control, CHOOATP2B1", "setting": "OATP2B1 [1]", "result": "not statistically different from that of CHOvector"},
      {"measurement": "cellular accumulation by fluorescence microscopy, OCT2", "setting": "OCT2", "result": "negative"},
      {"measurement": "cellular accumulation by fluorescence microscopy, OAT1", "setting": "OAT1", "result": "modest accumulation"},
      {"measurement": "cellular accumulation by fluorescence microscopy, NTCP", "setting": "NTCP", "result": "negative"},
      {"measurement": "cellular accumulation by fluorescence microscopy, OATP2B1", "setting": "OATP2B1 [2]", "result": "negative"},
      {"measurement": "cellular accumulation by fluorescence microscopy, OATP1B1", "setting": "OATP1B1", "result": "readily accumulated"},
      {"measurement": "aqueous solubility", "setting": "[3]", "result": "very high aqueous solubility"}
    ]}
  ]
}
